Data reported in ChEMBL document CHEMBL1201862, “PubChem BioAssay data set” (2004).
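Assay format: 96-well plates, 48-hour exposure. GI50 marks 50% less growth.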 Activity calls are given as the source filed them. Cut-off read from the data, not from the text of the source: active = GI50 up to about 1.1 µM and inactive = higher.

Assays:
Experiment in all cases: inhibition of tumour cell growth, NCI panel, 48 h
ACHN = test system: ACHN
CAKI-1 = test system: CAKI-1
CCRF-CEM = test system: CCRF-CEM
COLO 205 = test system: COLO 205
HOP-62 = test system: HOP-62
K562 = test system: K562
KM12 = test system: KM12
MCF7 = test system: MCF7
MDA-N = test system: MDA-N
Malme-3M = test system: Malme-3M
NCI-H460 = test system: NCI-H460
OVCAR-3 = test system: OVCAR-3
PC-3 = test system: PC-3
RPMI-8226 = test system: RPMI-8226
SF-268 = test system: SF-268
SK-MEL-2 = test system: SK-MEL-2
SK-OV-3 = test system: SK-OV-3
SW-620 = test system: SW-620
UO-31 = test system: UO-31
HL-60 = test system: HL-60

Compound | GI50 (ACHN) | GI50 (CAKI-1) | GI50 (CCRF-CEM) | GI50 (COLO 205) | GI50 (HOP-62) | GI50 (K562) | GI50 (KM12) | GI50 (MCF7) | GI50 (MDA-N) | GI50 (Malme-3M) | GI50 (NCI-H460) | GI50 (OVCAR-3) | GI50 (PC-3) | GI50 (RPMI-8226) | GI50 (SF-268) | GI50 (SK-MEL-2) | GI50 (SK-OV-3) | GI50 (SW-620) | GI50 (UO-31) | GI50 (HL-60)
CCN(CC)CCCNc1ccc2ncn3c4ccc(O)cc4c(=O)c1c23 | 0.272 µM (active) | 0.365 µM (active) | 0.166 µM (active) | 0.908 µM (active) | 0.989 µM (active) | 1.04 µM (active) | 3.85 µM (inactive) | 0.687 µM (active) | 6.08 µM (inactive) | 4.78 µM (inactive) | 0.105 µM (active) | 8.69 µM (inactive) | 1.41 µM (inactive) | 2.06 µM (inactive) | 1.66 µM (inactive) | 3.7 µM (inactive) | 0.527 µM (active) | 0.578 µM (active) | 2.16 µM (inactive) | –
O=C(Nc1ccccc1)Nn1c(-c2cccs2)nc2ccc(I)cc2c1=O | 27.5 µM (inactive) | 23.8 µM (inactive) | 20.5 µM (inactive) | 21.4 µM (inactive) | 51.4 µM (inactive) | 0.022 µM (active) | 31.3 µM (inactive) | 29.1 µM (inactive) | 23.2 µM (inactive) | – | 26.2 µM (inactive) | 11 µM (inactive) | 27.4 µM (inactive) | 19.1 µM (inactive) | 30.4 µM (inactive) | – | 20.9 µM (inactive) | 39.4 µM (inactive) | 21.2 µM (inactive) | 1.41 µM (inactive)
COC(=O)CSC(=S)Nc1nnc(NC(=S)SCOC(C)=O)n1C(=S)SCC(=O)OC | > 100 µM (inactive) | > 100 µM (inactive) | > 100 µM (inactive) | > 100 µM (inactive) | 6.97 µM (inactive) | > 100 µM (inactive) | > 100 µM (inactive) | > 100 µM (inactive) | > 100 µM (inactive) | – | > 100 µM (inactive) | > 100 µM (inactive) | > 100 µM (inactive) | > 100 µM (inactive) | > 100 µM (inactive) | – | – | > 100 µM (inactive) | > 100 µM (inactive) | > 100 µM (inactive)
Cc1cc(S(=O)(=O)n2ccnc2O)c(SCCCN(C)C)cc1Cl | > 100 µM (inactive) | > 100 µM (inactive) | > 100 µM (inactive) | > 100 µM (inactive) | > 100 µM (inactive) | > 100 µM (inactive) | > 100 µM (inactive) | > 100 µM (inactive) | > 100 µM (inactive) | > 100 µM (inactive) | > 100 µM (inactive) | > 100 µM (inactive) | > 100 µM (inactive) | – | > 100 µM (inactive) | > 100 µM (inactive) | > 100 µM (inactive) | > 100 µM (inactive) | > 100 µM (inactive) | –
CC(=O)N1N=C(c2ccccc2Nc2ccccc2C2=NN(C(C)=O)C(c3ccccc3)O2)OC1c1ccccc1 (configuration not stated) | 86.5 µM (inactive) | – | – | 18.6 µM (inactive) | > 100 µM (inactive) | 30.7 µM (inactive) | – | 11.5 µM (inactive) | 29 µM (inactive) | > 100 µM (inactive) | 26.7 µM (inactive) | > 100 µM (inactive) | 10.4 µM (inactive) | 25.3 µM (inactive) | – | 73.3 µM (inactive) | 30.3 µM (inactive) | 99.8 µM (inactive) | 48.5 µM (inactive) | –
COc1ccc2cc(C(=O)NCCc3ccccc3)ccc2c1OC | > 100 µM (inactive) | > 100 µM (inactive) | – | > 100 µM (inactive) | 32.1 µM (inactive) | 83.6 µM (inactive) | – | > 100 µM (inactive) | > 100 µM (inactive) | > 100 µM (inactive) | > 100 µM (inactive) | 46.1 µM (inactive) | 91.2 µM (inactive) | > 100 µM (inactive) | 54.3 µM (inactive) | 71.9 µM (inactive) | 65.3 µM (inactive) | > 100 µM (inactive) | – | –
OC(c1ccc(F)cc1)C(F)(F)c1nc(-c2ccccc2)no1 (configuration not stated) | 27.2 µM (inactive) | 27 µM (inactive) | 14.3 µM (inactive) | – | – | – | – | 23.7 µM (inactive) | 23.8 µM (inactive) | 13.9 µM (inactive) | 0.0632 µM (active) | 16.4 µM (inactive) | 21.8 µM (inactive) | – | 25.3 µM (inactive) | 18.9 µM (inactive) | – | 19.3 µM (inactive) | 19 µM (inactive) | 22.5 µM (inactive)
CCOC(=O)n1c2ccccc2c(=O)n1CCO | > 100 µM (inactive) | > 100 µM (inactive) | > 100 µM (inactive) | > 100 µM (inactive) | > 100 µM (inactive) | > 100 µM (inactive) | > 100 µM (inactive) | > 100 µM (inactive) | > 100 µM (inactive) | > 100 µM (inactive) | > 100 µM (inactive) | > 100 µM (inactive) | > 100 µM (inactive) | – | > 100 µM (inactive) | > 100 µM (inactive) | > 100 µM (inactive) | > 100 µM (inactive) | > 100 µM (inactive) | > 100 µM (inactive)
C#CCOC(=O)c1ccc(OC(C)=O)cc1 | > 100 µM (inactive) | > 100 µM (inactive) | > 100 µM (inactive) | > 100 µM (inactive) | > 100 µM (inactive) | > 100 µM (inactive) | > 100 µM (inactive) | > 100 µM (inactive) | > 100 µM (inactive) | – | > 100 µM (inactive) | > 100 µM (inactive) | > 100 µM (inactive) | > 100 µM (inactive) | > 100 µM (inactive) | > 100 µM (inactive) | > 100 µM (inactive) | > 100 µM (inactive) | > 100 µM (inactive) | –
COc1ccc2nc3ccc(OC)cc3c(S(=O)(=O)Cc3ccc([N+](=O)[O-])cc3)c2c1 | > 100 µM (inactive) | > 100 µM (inactive) | > 100 µM (inactive) | > 100 µM (inactive) | 93.5 µM (inactive) | > 100 µM (inactive) | > 100 µM (inactive) | > 100 µM (inactive) | > 100 µM (inactive) | > 100 µM (inactive) | > 100 µM (inactive) | > 100 µM (inactive) | > 100 µM (inactive) | – | 85.5 µM (inactive) | > 100 µM (inactive) | > 100 µM (inactive) | > 100 µM (inactive) | > 100 µM (inactive) | > 100 µM (inactive)
Cc1cc(C)c(-n2c(C)c(C)c(C#N)c2N)c(C)c1 | 31.3 µM (inactive) | 43.3 µM (inactive) | 15.3 µM (inactive) | 19.7 µM (inactive) | 35.8 µM (inactive) | 11 µM (inactive) | 36.1 µM (inactive) | – | 19.2 µM (inactive) | 25.1 µM (inactive) | 22.4 µM (inactive) | 24.2 µM (inactive) | 25.8 µM (inactive) | 18.6 µM (inactive) | 38.6 µM (inactive) | 19.5 µM (inactive) | 33 µM (inactive) | 26.5 µM (inactive) | 83.2 µM (inactive) | 15.1 µM (inactive)
C#CCCCC(=O)N(C(=O)C[S+]([O-])CC)c1ccccc1 (configuration not stated) | > 100 µM (inactive) | > 100 µM (inactive) | > 100 µM (inactive) | > 100 µM (inactive) | > 100 µM (inactive) | > 100 µM (inactive) | > 100 µM (inactive) | > 100 µM (inactive) | > 100 µM (inactive) | > 100 µM (inactive) | > 100 µM (inactive) | > 100 µM (inactive) | > 100 µM (inactive) | – | > 100 µM (inactive) | > 100 µM (inactive) | > 100 µM (inactive) | > 100 µM (inactive) | > 100 µM (inactive) | > 100 µM (inactive)
CCc1n[nH]c(=O)[nH]1 | > 100 µM (inactive) | > 100 µM (inactive) | > 100 µM (inactive) | > 100 µM (inactive) | > 100 µM (inactive) | > 100 µM (inactive) | > 100 µM (inactive) | > 100 µM (inactive) | > 100 µM (inactive) | > 100 µM (inactive) | > 100 µM (inactive) | > 100 µM (inactive) | > 100 µM (inactive) | – | > 100 µM (inactive) | > 100 µM (inactive) | > 100 µM (inactive) | – | > 100 µM (inactive) | > 10 µM (inactive)
Cc1cc(S(=O)(=O)O)ccc1/N=N/c1ccc(/N=N/c2c(O)ccc3ccccc23)c(C)c1 | 92.9 µM (inactive) | 53.2 µM (inactive) | 18.1 µM (inactive) | > 100 µM (inactive) | > 100 µM (inactive) | > 100 µM (inactive) | 31.6 µM (inactive) | – | 50.1 µM (inactive) | > 100 µM (inactive) | – | 39.4 µM (inactive) | > 100 µM (inactive) | > 100 µM (inactive) | 55.3 µM (inactive) | > 100 µM (inactive) | > 100 µM (inactive) | 42.3 µM (inactive) | 80.4 µM (inactive) | –
O=C(O)c1ccccn1 [2-PICOLINIC ACID] | > 100 µM (inactive) | > 100 µM (inactive) | > 100 µM (inactive) | > 100 µM (inactive) | > 100 µM (inactive) | > 100 µM (inactive) | > 100 µM (inactive) | > 100 µM (inactive) | > 100 µM (inactive) | – | > 100 µM (inactive) | > 100 µM (inactive) | > 100 µM (inactive) | > 100 µM (inactive) | > 100 µM (inactive) | > 100 µM (inactive) | – | > 100 µM (inactive) | > 100 µM (inactive) | –
Clc1ccccc1C(c1ccccc1)(c1ccccc1)n1ccnc1 [CLOTRIMAZOLE] | 10 µM (inactive) | 17.4 µM (inactive) | 5.93 µM (inactive) | 8.99 µM (inactive) | 11.4 µM (inactive) | 5.97 µM (inactive) | 11.7 µM (inactive) | 7.33 µM (inactive) | 11.9 µM (inactive) | 4.8 µM (inactive) | 10.7 µM (inactive) | 5.66 µM (inactive) | 7.03 µM (inactive) | 6.32 µM (inactive) | 16.5 µM (inactive) | 12.1 µM (inactive) | 14.5 µM (inactive) | 12 µM (inactive) | 6.56 µM (inactive) | –
